Laboratory results published in US9796764B2, “Cyclotide genes in the fabaceae plant family” (The University of Queensland, priority 2011, dated 2017).
Where a SMILES comes first, the peptide text is derived from it.

Tests used:
[1] = Haemolytic activity assay; type: cell-based, human; conditions: washed human red blood cells; % of maximum lysis (1% Triton X-100); read-out: haemolytic dose necessary to lyse 50% of the RBCs (HD50)
Protocol: (§1) Serially diluted peptide solutions were incubated with washed human red blood cells. Following incubation, the supernatant was transferred before the UV absorbance was measured. The amount of haemolysis was calculated as the percentage of maximum lysis (1% Triton X-100 control) after adjusting for minimum lysis (PBS control). Synthetic melittin was used for comparison. The haemolytic dose necessary to lyse 50% of the RBCs (HD50) was calculated using the regression constant from the linear portion of the haemolytic titration curve (Graphpad Prism software).

[2] = test system: human red blood cells; assay: Haemolytic activity assay; type: cell-based; conditions: human red blood cells
Protocol: as §1

[3] = Heat denaturation, NMR spectra before and after heating; type: physicochemical; conditions: 95° C. for 5 minutes
Source text: (B) Superposition of the 20 lowest energy structures of Cter M. Secondary structure of Cter M (C) and PA1b (E; PDB code 1P8B). The strands are shown as arrows and the helical turns as thickened ribbons. The disulfide bonds are shown in ball-and-stick format. The structure figures were generated using MOLMOL (Koradi, R., Billeter, M. & Wüthrich, K. (1996) J. Mol. Graph. 14, 29-32). Superimposition of Cter M and PA1b (D) showing cystine knot motif; disulfide bonds are indicated, and the aC are represented by spheres.
The structure of Cter M is extremely stable evidenced by its resistance to heat denaturation. […] An ensemble and ribbon representation of the three dimensional structure is shown in FIG. 14 along with a comparison with PA1b, the pea albumin whose precursor shares high sequence homology with the Cter gene.

[4] = test system: Helicoverpa armigera larvae; assay: Insecticidal feeding trial; type: in vivo; conditions: against the cotton budworm Helicoverpa armigera
Protocol: H. armigera larvae were obtained from the Queensland Department of Employment, Economic Development & Innovation. A feeding trial was conducted for 48 h with larvae maintained at 25° C. throughout the experiment. Larvae were given diets consisting of wheat germ, yeast, and soy flour.

[5] = Solubility of the synthetic peptide; type: physicochemical
Protocol: Synthesis Cter M was synthesized using solid phase peptide synthesis and folded using conditions earlier established for other cyclotides (Daly, N. L., et al., (1999) Biochemistry 38, 10606-10614) including the use of 50% isopropanol in buffer. […] The NMR spectra of the native and synthetic Cter M peptides were recorded and found to be identical. The three-dimensional structure of Cter M was calculated with 398 distance restraints and 11 angle restraints using a simulated annealing protocol in CNS.

[6] = molecular target: T1, trypsin (Bos taurus, UniProt P00760); assay: Proteolysis by trypsin (MS of leaf extract); type: in vitro ADME; conditions: native Cter M in leaf extract
T1 construct: purchased Sigma T1426
T1 sequence (P00760 24-246): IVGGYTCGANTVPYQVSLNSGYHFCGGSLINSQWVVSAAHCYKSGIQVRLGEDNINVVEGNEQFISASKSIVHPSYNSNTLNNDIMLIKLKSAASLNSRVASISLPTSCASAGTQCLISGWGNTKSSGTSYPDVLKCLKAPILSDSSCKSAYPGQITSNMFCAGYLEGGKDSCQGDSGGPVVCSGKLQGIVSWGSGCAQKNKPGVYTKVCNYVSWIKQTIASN
Source text: (§2) The reduced and alkylated peptide, m/z 3407.6 (E, G, I) underwent proteolytic cleavage by trypsin (F) and chymotrypsin (H, J). As there is only a single tryptic site, the trypsin digestion product is observed at m/z 3424.6, whereas there were three chymotryptic sites resulting in the formation of major products at m/z 1450.7, 1511.7 and 1931.8 corresponding to KNGLPTCGETCL (SEQ ID NO:129), VPDCSCSWPICM (SEQ ID NO:130) and KNGLPTCGETCLGTCY (SEQ ID NO:131) respectively.

[7] = Binding to immobilized lipid vesicles (sensorgram); conditions: PE membranes
[8] = test system: chymotrypsin; assay: Proteolysis by chymotrypsin (MS of leaf extract); type: in vitro ADME; conditions: native Cter M in leaf extract
Source text: as §2

[9] = test system: L3-stage larvae of Haemonchus contortus; assay: Larval migration (motility) assay; type: cell-based; conditions: against Haemonchus contortus
Protocol: The effect of kB1 and Cter M on the motility of L3-stage larvae of Haemonchus contortus was assessed using a previously described method (Colgrave, et al., 2010, Antimicrob. Agents Ch. 54:2160-2166). The larvae were incubated in PBS containing a range of peptide concentrations for 24 h in the dark in a 96-well plate format. The motility of the worms was assessed wherein sinusoidal motion was indicative of health and loss of motility or the degree of motility was indicative of poor health. Nematodes that had been incubated with cyclotides were compared to control (no-peptide) wells.

CC[C@H](C)[C@@H]1NC(=O)[C@@H]2CCCN2C(=O)[C@H](Cc2c[nH]c3ccccc23)NC(=O)[C@H](CO)NC(=O)[C@@H]2CSSC[C@@H]3NC(=O)[C@H]([C@@H](C)O)NC(=O)[C@H](CCC(=O)O)NC(=O)CNC(=O)[C@@H]4CSSC[C@H](NC(=O)[C@H](CC(=O)O)NC(=O)[C@@H]5CCCN5C(=O)[C@H](C(C)C)NC(=O)[C@H](Cc5ccc(O)cc5)NC(=O)[C@H](CSSC[C@H](NC1=O)C(=O)N[C@@H](CCSC)C(=O)N[C@@H](CCCCN)C(=O)N[C@@H](CC(N)=O)C(=O)NCC(=O)N[C@@H](CC(C)C)C(=O)N1CCC[C@H]1C(=O)N[C@@H]([C@@H](C)O)C(=O)N4)NC(=O)[C@H]([C@@H](C)O)NC(=O)CNC(=O)[C@H](CC(C)C)NC(=O)[C@H]([C@@H](C)O)NC3=O)C(=O)N[C@@H](CO)C(=O)N2 [Cter M] (HELM PEPTIDE1{C.G.E.T.C.T.L.G.T.C.Y.V.P.D.C.S.C.S.W.P.I.C.M.K.N.G.L.P.T}$PEPTIDE1,PEPTIDE1,1:R3-15:R3|PEPTIDE1,PEPTIDE1,5:R3-17:R3|PEPTIDE1,PEPTIDE1,10:R3-22:R3|PEPTIDE1,PEPTIDE1,1:R1-29:R2$$$V2.0)
HC50 [1]: > 100 µM
haemolytic activity [2]: mildly haemolytic
resistance to heat denaturation (change in NMR spectra) [3]: no changes were observed in the spectra
insecticidal activity [4]: insecticidal activity
solubility on addition of acetonitrile ([5]; addition of acetonitrile): greatly improved the solubility
solubility in water ([5]; water): relatively low solubility in water
hydrolysis by trypsin [6]: no observed hydrolysis
membrane binding [7]: binds to PE membranes
hydrolysis by chymotrypsin [8]: no observed hydrolysis
anthelmintic activity [9]: anthelmintic activity

CC(C)C[C@@H]1NC(=O)CNC(=O)[C@H](CC(N)=O)NC(=O)[C@H](CCCNC(=N)N)NC(=O)[C@H]([C@@H](C)O)NC(=O)[C@@H]2CSSC[C@@H]3NC(=O)[C@H]([C@@H](C)O)NC(=O)CNC(=O)CNC(=O)[C@H](C(C)C)NC(=O)[C@@H]4CSSC[C@H](NC(=O)[C@H]([C@@H](C)O)NC(=O)[C@H](CSSC[C@H](NC(=O)[C@H](C(C)C)NC(=O)[C@@H]5CCCN5C1=O)C(=O)NCC(=O)N[C@@H](CCC(=O)O)C(=O)N[C@@H]([C@@H](C)O)C(=O)N4)NC(=O)CNC(=O)[C@@H]1CCCN1C(=O)[C@H]([C@@H](C)O)NC(=O)[C@H](CC(N)=O)NC3=O)C(=O)N[C@@H](CO)C(=O)N[C@@H](Cc1c[nH]c3ccccc13)C(=O)N1CCC[C@H]1C(=O)N[C@@H](C(C)C)C(=O)N2 [kB1, kalata B1, reference compound]
HC50 [1]: 7.8 µM
